Reference: ChEMBL document CHEMBL3751752, “Total synthesis of a biotinylated rocaglate: Selective targeting of the translation factors eIF4AI/II” (Bioorg Med Chem Lett, 2016)
The source made the active and inactive calls. The rule behind the calls is not given here.

Key:
[1] = target: Eukaryotic initiation factor 4A-I (Mus musculus) (UniProt P60843); experiment: Binding affinity to eIF4A1 in mouse embryonic fibroblasts at 20 uM by streptavidin pulldown assay
[2] = target: Eukaryotic initiation factor 4A-II (Mus musculus) (UniProt P10630); experiment: Binding affinity to eIF4A2 in mouse embryonic fibroblasts at 20 uM by streptavidin pulldown assay
[3] = target: Eukaryotic initiation factor 4A-I (Homo sapiens) (UniProt P60842); experiment: Inhibition of e1F4A1 (unknown origin) in rabbit reticulocyte assessed as capped-dependent translation incubated for 1 hr by dual glo luciferase assay
[4] = target: Eukaryotic initiation factor 4A-II (Mus musculus) (UniProt P10630); experiment: Binding affinity to eIF4A2 in mouse embryonic fibroblasts by Western blot method
[5] = target: ATP-dependent RNA helicase DDX3X (Mus musculus) (UniProt Q62167); experiment: Binding affinity to DDX3 in mouse embryonic fibroblasts by Western blot method
[6] = target: Eukaryotic translation initiation factor 4E (Mus musculus) (UniProt P63073); experiment: Binding affinity to eIF4E in mouse embryonic fibroblasts by Western blot method
[7] = target: Eukaryotic initiation factor 4A-I (Mus musculus) (UniProt P60843); experiment: Binding affinity to eIF4A1 in mouse embryonic fibroblasts by Western blot method
[8] = target: Eukaryotic initiation factor 4A-III (Mus musculus) (UniProt Q91VC3); experiment: Binding affinity to eIF4A3 in mouse embryonic fibroblasts by Western blot method
[9] = target: T1, Prohibitin 1 (Mus musculus) (UniProt P67778); experiment: Binding affinity to prohibitin in mouse embryonic fibroblasts by Western blot method
T1 sequence (whole entry): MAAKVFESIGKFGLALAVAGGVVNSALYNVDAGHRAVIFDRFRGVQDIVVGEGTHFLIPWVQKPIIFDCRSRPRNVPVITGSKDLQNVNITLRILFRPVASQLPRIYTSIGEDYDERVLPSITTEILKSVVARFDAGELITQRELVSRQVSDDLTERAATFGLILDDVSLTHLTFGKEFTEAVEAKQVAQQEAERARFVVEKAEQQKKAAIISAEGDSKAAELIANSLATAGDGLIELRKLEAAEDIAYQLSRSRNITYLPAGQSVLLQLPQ

Sequence of Eukaryotic initiation factor 4A-II (Mus musculus) (P10630 whole entry): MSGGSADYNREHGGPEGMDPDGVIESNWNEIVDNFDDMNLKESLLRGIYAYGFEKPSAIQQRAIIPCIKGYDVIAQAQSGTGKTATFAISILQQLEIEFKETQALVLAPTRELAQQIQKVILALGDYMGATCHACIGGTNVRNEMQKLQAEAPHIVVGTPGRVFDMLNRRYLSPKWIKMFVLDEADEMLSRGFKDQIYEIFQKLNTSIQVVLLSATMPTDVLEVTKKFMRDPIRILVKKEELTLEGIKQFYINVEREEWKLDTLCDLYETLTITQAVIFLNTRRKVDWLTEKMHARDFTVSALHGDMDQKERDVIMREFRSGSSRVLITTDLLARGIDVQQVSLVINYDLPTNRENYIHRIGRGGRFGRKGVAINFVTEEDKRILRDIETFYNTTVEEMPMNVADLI
Sequence of Eukaryotic initiation factor 4A-I (Mus musculus) (P60843 whole entry): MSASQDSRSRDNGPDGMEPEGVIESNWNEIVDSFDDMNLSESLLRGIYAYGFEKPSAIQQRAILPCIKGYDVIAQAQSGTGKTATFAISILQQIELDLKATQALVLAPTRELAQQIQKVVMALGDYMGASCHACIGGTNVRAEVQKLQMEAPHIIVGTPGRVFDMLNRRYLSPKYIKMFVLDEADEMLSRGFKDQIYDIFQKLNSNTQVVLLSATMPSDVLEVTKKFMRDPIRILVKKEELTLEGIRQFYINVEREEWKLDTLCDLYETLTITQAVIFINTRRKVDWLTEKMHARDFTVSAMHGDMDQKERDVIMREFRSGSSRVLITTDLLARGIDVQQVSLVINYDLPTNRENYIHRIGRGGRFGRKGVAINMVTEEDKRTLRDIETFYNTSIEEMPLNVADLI
Sequence of Eukaryotic initiation factor 4A-I (Homo sapiens) (P60842 whole entry): as the sequence (P60843 whole entry) above
Sequence of ATP-dependent RNA helicase DDX3X (Mus musculus) (Q62167 whole entry): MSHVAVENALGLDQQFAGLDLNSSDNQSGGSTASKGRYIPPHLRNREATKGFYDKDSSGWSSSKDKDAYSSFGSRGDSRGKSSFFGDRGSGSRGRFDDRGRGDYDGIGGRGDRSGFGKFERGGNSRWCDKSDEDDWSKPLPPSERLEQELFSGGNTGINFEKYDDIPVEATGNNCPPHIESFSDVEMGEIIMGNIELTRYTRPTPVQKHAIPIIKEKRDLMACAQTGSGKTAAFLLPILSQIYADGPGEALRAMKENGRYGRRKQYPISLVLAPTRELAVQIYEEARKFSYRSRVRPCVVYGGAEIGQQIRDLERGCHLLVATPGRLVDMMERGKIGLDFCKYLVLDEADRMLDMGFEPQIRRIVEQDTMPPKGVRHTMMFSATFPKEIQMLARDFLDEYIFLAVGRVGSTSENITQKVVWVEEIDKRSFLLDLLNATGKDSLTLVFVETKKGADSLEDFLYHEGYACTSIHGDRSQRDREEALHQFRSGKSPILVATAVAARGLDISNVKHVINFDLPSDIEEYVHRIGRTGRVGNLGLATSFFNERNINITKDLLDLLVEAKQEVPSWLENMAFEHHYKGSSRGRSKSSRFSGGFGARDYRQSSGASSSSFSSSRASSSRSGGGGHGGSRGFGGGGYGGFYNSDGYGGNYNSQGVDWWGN
Sequence of Eukaryotic initiation factor 4A-III (Mus musculus) (Q91VC3 whole entry): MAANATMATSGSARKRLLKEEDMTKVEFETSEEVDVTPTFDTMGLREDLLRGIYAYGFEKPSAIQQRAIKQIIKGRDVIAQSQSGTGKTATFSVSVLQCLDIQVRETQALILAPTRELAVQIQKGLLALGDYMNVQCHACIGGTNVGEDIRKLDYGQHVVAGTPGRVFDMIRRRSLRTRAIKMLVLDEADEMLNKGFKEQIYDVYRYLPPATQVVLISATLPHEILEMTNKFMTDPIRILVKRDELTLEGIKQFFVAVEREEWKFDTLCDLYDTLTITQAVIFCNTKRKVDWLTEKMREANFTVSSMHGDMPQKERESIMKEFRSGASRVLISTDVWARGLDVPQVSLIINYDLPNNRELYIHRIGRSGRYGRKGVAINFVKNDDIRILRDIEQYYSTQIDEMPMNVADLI
Sequence of Eukaryotic translation initiation factor 4E (Mus musculus) (P63073 whole entry): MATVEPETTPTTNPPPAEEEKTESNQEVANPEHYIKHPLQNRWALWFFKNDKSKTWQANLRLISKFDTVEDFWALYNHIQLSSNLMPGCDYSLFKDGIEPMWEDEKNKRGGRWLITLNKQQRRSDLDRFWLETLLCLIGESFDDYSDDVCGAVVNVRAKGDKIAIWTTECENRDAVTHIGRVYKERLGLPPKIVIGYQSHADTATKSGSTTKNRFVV

`COc1ccc([C@@]23Oc4cc(OC)cc(OC)c4[C@]2(O)[C@H](O)[C@H](C(=O)N(C)C)[C@H]3c2ccccc2)cc1` was tested, and the Activity [1] was “Active” and the Activity [2] was “Active”.

For `COC(=O)[C@H]1[C@@H](O)[C@@]2(O)c3c(OC)cc(OC)cc3O[C@@]2(c2ccc(OC)cc2)[C@@H]1c1ccccc1`, the Activity [1] was “Active”, the inhibition [3] was “Active” and the Activity [2] was “Active”.

In the case of `COc1ccc([C@@]23Oc4cc(OC)cc(OC)c4[C@]2(O)[C@H](O)[C@H](C(=O)NCc2cn(CCCOCCOCCOCCCNC(=O)CCCC[C@@H]4SC[C@@H]5NC(=O)N[C@@H]54)nn2)[C@H]3c2ccccc2)cc1`, the Activity [4] is reported as “Active”, the Activity [1] is reported as “Active” and the Activity [5] is reported as “inactive”. For the same molecule, the Activity [6] was “inactive”, the Activity [7] was “Active” and the inhibition [3] was “Active”. The Activity [8] was “inactive”, the Activity [9] was “inactive” and the Activity [2] was “Active”.

`O=C(O)CCCC[C@@H]1SC[C@@H]2NC(=O)N[C@@H]21` was tested, and the Activity [1] was “inactive” and the Activity [2] was “inactive”.

With `C#CCNC(=O)[C@H]1[C@@H](O)[C@@]2(O)c3c(OC)cc(OC)cc3O[C@@]2(c2ccc(OC)cc2)[C@@H]1c1ccccc1` the inhibition [3] was “Active”.

For `COc1ccc([C@@]23Oc4cc(OC)cc(OC)c4[C@]2(O)[C@H](O)[C@H](C(=O)O)[C@H]3c2ccccc2)cc1`, the inhibition [3] was “Active”.

For `COc1ccc([C@@]23Oc4cc(O[C@@H]5O[C@@H]([C@@H](O)CO)CO[C@H]5OC)cc(OC)c4[C@]2(O)[C@H](O)[C@H](C(=O)NCc2cn(CCCOCCOCCOCCCNC(=O)CCCC[C@@H]4SC[C@@H]5NC(=O)N[C@@H]54)nn2)[C@H]3c2ccccc2)cc1`, the Activity [4] was “Active”, the Activity [1] was “Active” and the Activity [5] was “inactive”. For the same molecule, the Activity [6] was “inactive”, the Activity [7] was “Active” and the Activity [8] was “inactive”. The Activity [9] was “inactive” and the Activity [2] was “Active”.

`COC(=O)[C@H]1[C@@H](O)[C@@]2(O)c3c(OC)cc(O[C@@H]4O[C@@H]([C@@H](O)CO)CO[C@H]4OC)cc3O[C@@]2(c2ccc(OC)cc2)[C@@H]1c1ccccc1` was tested, and the Activity [1] was “Active”, the inhibition [3] was “Active” and the Activity [2] was “Active”.
